Consider 20 molecules from ChEMBL document CHEMBL3132818, “Heterocycle-fused lupane triterpenoids inhibit Leishmania donovani amastigotes” (Medchemcomm, 2014).

The structures appear in SMILES notation.

As a reminder, the IC50 is the midpoint of a concentration-inhibition curve.

Data set [1] has as its system Leishmania donovani. The data set is described as follows: Antileishmanial activity against axenic amastigote stage of Leishmania donovani MHOM/SD/1962/1S-Cl2d assessed as parasite growth inhibition at 15 uM after 24 hrs by AlamarBlue assay (reference value: 1.5 +/- 3.8%). The data set is classed as functional. Conditions: read-out: GI. A general note: The colour change of resazurin is a common sign of viable cells or microbes.

Data set [2] deals with Leishmania donovani. The data set is described as follows: Antileishmanial activity against axenic amastigote stage of Leishmania donovani MHOM/SD/1962/1S-Cl2d assessed as parasite growth inhibition at 50 uM after 24 hrs by AlamarBlue assay (reference value: 0.0 +/- 4.6%). The data set is classed as functional. Conditions: read-out: GI.
For data set [3], the system named is Leishmania donovani. The data set is described as follows: Antileishmanial activity against axenic amastigote stage of Leishmania donovani MHOM/SD/1962/1S-Cl2d assessed as parasite growth inhibition at 5 uM after 24 hrs by AlamarBlue assay (reference value: 0.0 +/- 0.9%). Conditions: read-out: GI. The data set is classed as functional.
Data set [4] relates to Leishmania donovani. The data set is described as follows: Antileishmanial activity against axenic amastigote stage of Leishmania donovani MHOM/SD/1962/1S-Cl2d assessed as parasite growth inhibition after 24 hrs by AlamarBlue assay. The data set is classed as functional, organism-based.
Data set [5] concerns Leishmania donovani. The data set is described as follows: Antileishmanial activity against intracellular amastigote stage of Leishmania donovani infected in human THP1 cells assessed as parasite growth inhibition at 5 uM after 48 hrs by luciferase reporter gene assay relative to control. The data set is classed as functional. Conditions: THP-1, 48 h, read-out: GI. (In general: A reporter such as luciferase makes a cellular process visible.)

A further data set deals with THP-1. Nature of the data set: Cytotoxicity against human THP1 cells assessed as cell viability after 48 hrs by AlamarBlue assay. The data set is classed as cell-based. Conditions: THP-1, 48 h.
Data set [6] in a line: Selectivity index, ratio of IC50 for human THP1 cells to IC50 for axenic amastigote stage of Leishmania donovani MHOM/SD/1962/1S-Cl2d. The data set is classed as toxicity, cell-based, THP-1. Conditions: read-out: Ratio IC50.
Data set [7] has as its system Leishmania donovani. The data set is described as follows: Antileishmanial activity against axenic amastigote stage of Leishmania donovani MHOM/SD/1962/1S-Cl2d assessed as parasite growth inhibition at 1 uM after 24 hrs by AlamarBlue assay relative to control. The data set is classed as functional. The following applies: read-out: GI.
In data set [8] the test system is Leishmania donovani. The data set is described as follows: Antileishmanial activity against intracellular amastigote stage of Leishmania donovani infected in human THP1 cells assessed as parasite growth inhibition at 1 uM after 48 hrs by luciferase reporter gene assay relative to control. The following applies: THP-1, 48 h, read-out: GI. The data set is classed as functional.

Take `C=C(C)[C@@H]1CC[C@]2(C(=O)O)CC[C@]3(C)[C@H](CC[C@@H]4[C@@]5(C)Cc6c([nH]c7ccccc67)C(C)(C)[C@@H]5CC[C@]43C)[C@@H]12`: the inhibition of growth at 15 µM in the data set with Leishmania donovani [1] was found to be 27.4%. In the data set with Leishmania donovani [2], the inhibition of growth at 50 µM worked out at 23.4%. The inhibition of growth at 5 µM in the data set on Leishmania donovani [3] amounted to 5%.
With `CC1(C)CC[C@]23CC[C@]4(C)[C@H](CC[C@@H]5[C@@]6(C)Cc7c([nH]c8ccc(F)cc78)C(C)(C)[C@@H]6CC[C@]54C)[C@H]2[C@H]1OC3`, the inhibition of growth at 15 µM in the data set with Leishmania donovani [1] turned out to be 10.2%. Also, the inhibition of growth at 50 µM with Leishmania donovani [2] worked out at 6.8%. For the same molecule, the inhibition of growth at 5 µM in the data set with Leishmania donovani [3] worked out at 0.2%.
For `C=C(C)[C@@H]1CC[C@]2(C(N)=O)CC[C@]3(C)[C@H](CC[C@@H]4[C@@]5(C)Cc6cnoc6C(C)(C)[C@@H]5CC[C@]43C)[C@@H]12`, in the data set on Leishmania donovani [1], the inhibition of growth at 15 µM stood at 16.7%. In addition, the inhibition of growth at 50 µM in the data set with Leishmania donovani [2] was 84.3%.
On the same counts, the results for `C=C(C)[C@@H]1CC[C@]2(C(=O)O)CC[C@]3(C)[C@H](CC[C@@H]4[C@@]5(C)Cc6cccnc6C(C)(C)[C@@H]5CC[C@]43C)[C@@H]12` are 25.6% and 87.9%.
As for `C=C(C)[C@@H]1CC[C@]2(C(N)=O)CC[C@]3(C)[C@H](CC[C@@H]4[C@@]5(C)Cc6nccnc6C(C)(C)[C@@H]5CC[C@]43C)[C@@H]12`, the inhibition of growth at 15 µM in the data set with Leishmania donovani [1] was found to be 35.2%. Further, the inhibition of growth at 50 µM in the data set on Leishmania donovani [2] is 94.9%.
Turning to `C=C(C)[C@@H]1CC[C@]2(C(=O)O)CC[C@]3(C)[C@H](CC[C@@H]4[C@@]5(C)CCC(=O)NC(C)(C)[C@@H]5CC[C@]43C)[C@@H]12`, the half-maximal inhibitory concentration (IC50) in the data set on Leishmania donovani [4] turned out to be 4.3 µM; in the data set with THP-1, 55.5 µM. In the data set on Leishmania donovani [1], the inhibition of growth at 15 µM was found to be 75.2%. Further, the inhibition of growth at 50 µM with Leishmania donovani [2] turned out to be 98.2%. Further, the inhibition of growth at 5 µM in the data set on Leishmania donovani [5] was 54%; in the data set on Leishmania donovani [3], 52%. Also, the selectivity ratio in data set [6] amounted to 12.9.
For `C=C(C)[C@@H]1CC[C@]2(C(=O)O)CC[C@]3(C)[C@H](CC[C@@H]4[C@@]5(C)CC[C@H](O)C(C)(C)[C@@H]5CC[C@]43C)[C@@H]12` [BETULINIC ACID], the inhibition of growth at 50 µM in the data set on Leishmania donovani [2] came to 61.1%.
Same read-out and setting: then `C=C(C)[C@@H]1CC[C@]2(C(=O)O)CC[C@]3(C)[C@H](CC[C@@H]4[C@@]5(C)Cc6c[nH]nc6C(C)(C)[C@@H]5CC[C@]43C)[C@@H]12`, with 60.2%.
Take `C=C(C)[C@@H]1CC[C@]2(CO)CC[C@]3(C)[C@H](CC[C@@H]4[C@@]5(C)Cc6cnoc6C(C)(C)[C@@H]5CC[C@]43C)[C@@H]12`: in the data set with Leishmania donovani [2], the inhibition of growth at 50 µM was found to be 56.9%.
`C=C(C)[C@@H]1CC[C@]2(C(=O)O)CC[C@]3(C)[C@H](CC[C@@H]4[C@@]5(C)CC[C@H](OC(=O)CC(C)(C)C(=O)O)C(C)(C)[C@@H]5CC[C@]43C)[C@@H]12` [BEVIRIMAT]: the 50% inhibitory concentration (IC50) in the data set with Leishmania donovani [4] was found to be 7.2 µM; with THP-1, 54 µM. In addition, the inhibition of growth at 15 µM in the data set with Leishmania donovani [1] worked out at 69.1%. Also, the inhibition of growth at 50 µM with Leishmania donovani [2] is 100%. The selectivity ratio in [6] was determined as 7.5. The inhibition of growth at 5 µM in the data set on Leishmania donovani [3] came to 59%.
`CC1(C)CC[C@]23CC[C@]4(C)[C@H](CC[C@@H]5[C@@]6(C)Cc7c([nH]c8ccccc78)C(C)(C)[C@@H]6CC[C@]54C)[C@H]2[C@H]1OC3`: the inhibition of growth at 15 µM with Leishmania donovani [1] is 18.5%. Also, the inhibition of growth at 50 µM in the data set with Leishmania donovani [2] stood at 19.8%.
Regarding `C[C@@H]1[C@H](O)[C@@H](C)/C=C/C=C/C=C/C=C/C=C/C=C/C=C/[C@H](O[C@@H]2O[C@H](C)[C@@H](O)[C@H](N)[C@@H]2O)C[C@@H]2O[C@](O)(C[C@@H](O)C[C@@H](O)[C@H](O)CC[C@@H](O)C[C@@H](O)CC(=O)O[C@H]1C)C[C@H](O)[C@H]2C(=O)O` [AMPHOTERICIN B], the inhibition of growth at 1 µM turned out to be 99.9% in the data set with Leishmania donovani [7] and 96.7% with Leishmania donovani [8].
In the case of `C=C(C)[C@@H]1CC[C@]2(/C=N/O)CC[C@]3(C)[C@H](CC[C@@H]4[C@@]5(C)Cc6nccnc6C(C)(C)[C@@H]5CC[C@]43C)[C@@H]12`, the inhibition of growth at 50 µM with Leishmania donovani [2] worked out at 2.8%.
Turning to `C=C(C)[C@@H]1CC[C@]2(C(=O)O)CC[C@]3(C)[C@H](CC[C@@H]4[C@@]5(C)Cc6cnoc6C(C)(C)[C@@H]5CC[C@]43C)[C@@H]12`, in the data set with Leishmania donovani [1], the inhibition of growth at 15 µM was determined as 15.6%. Also, the inhibition of growth at 50 µM in the data set with Leishmania donovani [2] stood at 95.7%.
For `C=C(C)[C@@H]1CC[C@]2(C(=O)O)CC[C@]3(C)[C@H](CC[C@@H]4[C@@]5(C)Cc6c([nH]c7ccc(OC)cc67)C(C)(C)[C@@H]5CC[C@]43C)[C@@H]12`, the inhibition of growth at 15 µM in the data set with Leishmania donovani [1] stood at 17.5%. The inhibition of growth at 50 µM with Leishmania donovani [2] was determined as 29.3%. Besides, the inhibition of growth at 5 µM with Leishmania donovani [3] was 14%.
For `C=C(C)[C@@H]1CC[C@]2(C(=O)O)CC[C@]3(C)[C@H](CC[C@@H]4[C@@]5(C)CCC(=O)C(C)(C)[C@@H]5CC[C@]43C)[C@@H]12` [BETUNOLIC ACID], in the data set on Leishmania donovani [1], the inhibition of growth at 15 µM was found to be 45.9%. Moreover, the inhibition of growth at 50 µM with Leishmania donovani [2] is 98.6%.
For the molecule `C=C(C)[C@@H]1CC[C@]2(C(=O)O)CC[C@]3(C)[C@H](CC[C@@H]4[C@@]5(C)Cc6nccnc6C(C)(C)[C@@H]5CC[C@]43C)[C@@H]12`, the half-inhibitory concentration (IC50) in the data set with Leishmania donovani [4] was 13.2 µM. Besides, the inhibition of growth at 15 µM in the data set on Leishmania donovani [1] is 79.7%. The inhibition of growth at 50 µM with Leishmania donovani [2] was found to be 92.7%. Moreover, the inhibition of growth at 5 µM in the data set with Leishmania donovani [3] was determined as 20.3%.
Take `CC(C)[C@@H]1CC[C@]2(C(=O)O)CC[C@]3(C)[C@H](CC[C@@H]4[C@@]5(C)Cc6cnoc6C(C)(C)[C@@H]5CC[C@]43C)[C@@H]12`: the inhibition of growth at 50 µM in the data set with Leishmania donovani [2] came to 2.4%.
Regarding `C=C(C)[C@@H]1CC[C@]2(C=O)CC[C@]3(C)[C@H](CC[C@@H]4[C@@]5(C)Cc6cnoc6C(C)(C)[C@@H]5CC[C@]43C)[C@@H]12`, the inhibition of growth at 15 µM with Leishmania donovani [1] was 21.1%. The inhibition of growth at 50 µM with Leishmania donovani [2] was 34.2%.
In the case of `C=C(C)[C@@H]1CC[C@]2(COC(C)=O)CC[C@]3(C)[C@H](CC[C@@H]4[C@@]5(C)Cc6cnoc6C(C)(C)[C@@H]5CC[C@]43C)[C@@H]12`, the inhibition of growth at 50 µM with Leishmania donovani [2] is 6.1%.
